Columns and labels:
[1] = test system: retinal lesion (wet-AMD) induced by laser photocoagulation; experiment: Lesion volume in laser-induced CNV wet-AMD mouse model (FITC-dextran, Z-stack 3D imaging); type: in vivo; conditions: for efficacy on lesion compared with positive control anti-VEGF agent (FIG. 1) / lesion formation / lesion volume (FIG. 1): oral, from 6 days before and for 7 days after inducing wet-AMD; for efficacy on lesion compared with positive control anti-VEGF agent (FIG. 1): Eylea injected into the eye as positive control; for lesion formation / lesion volume (FIG. 1): male C57BL/6 mice
Method: Male C57BL/6 mice were anesthetized with zoletil and rompun, and a retinal lesion (wet-AMD) was induced by performing three laser photocoagulations at the 2 o'clock, 6 o'clock, and 10 o'clock positions at on the retina of the mouse eye under a slit-lamp microscope. Each of Compound 1-2 and Compound 1-18 was administered orally starting from 6 days before inducing wet-AMD, and was administered orally for 7 days after inducing the disease. Eylea (Bayer, Germany), used as a positive control, was administered by direct injection into the eye immediately after induction of the disease model.
After weighing each mouse, FITC-dextran (SIGMA, #46944) diluted in saline at a concentration of 5 mg/kg was injected into the tail veins of the mice to which each of Compound 1-2 and Compound 1-18 has been administered for 7 days after inducing the wet-AMD model. 3D images of the lesions were obtained using the Z-stack imaging technique, and the volumes of the lesions on the images were quantitatively measured.
(§1) Changes after administering Compound 1-2 for 7 days after induction of the disease without administration before induction of the disease to the wet-AMD mouse model induced in the same manner as in Experimental Example 1 were analyzed. In the same manner as Experimental Example 1, the image of the lesion was obtained and the volume of the lesion was quantified.
as §1, with “co-administering” for “administering”, “1-2 and the anti-VEGF agent (Eylea)” for “1-2”
as §1, with “1-2 at concentrations of 25, 50 and 100 mg/kg” for “1-2”, “administration of Compound 1-2” for “administration”

[2] = test system: mitochondrial reactive oxygen species in RPE cells; experiment: Mitochondrial reactive oxygen species (MitoSOX) in RPE cells from wet-AMD (CNV) animal model; type: in vivo, mouse; conditions: for mitochondrial reactive oxygen species in RPE cells (FIG. 2) / efficacy on mitochondrial reactive oxygen species compared with positive control anti-VEGF agent (FIG. 2): oral, from 6 days before and for 7 days after inducing wet-AMD; for efficacy on mitochondrial reactive oxygen species compared with positive control anti-VEGF agent (FIG. 2): Eylea as positive control
Description: (§2) RPE cells were isolated from the same model as in Experimental […] changes in mitochondrial reactive oxygen species in the RPE cells were examined through fluorescence microscopy. Specifically, immediately after enucleation of the mouse eye, mitochondria and nuclei were stained using the MitoSOX™ (Invitrogen, #M36008) kit and imaged with a fluorescence microscope at a fluorescence wavelength of 510/580 nm, and changes in reactive oxygen species in the mitochondria were measured.
RPE cells were isolated from the same model as in Experimental Example 3 and stained with MitoSOX, and changes in mitochondrial reactive oxygen species in the RPE cells were examined through fluorescence microscopy. Measurement was performed in the same manner as in Experimental Example 2.
RPE cells were isolated from the same model as in Experimental Example 5 and stained with MitoSOX, and changes in mitochondrial reactive oxygen species in the RPE cells were examined through fluorescence microscopy. Measurement was performed in the same manner as in Experimental Example 2.
RPE cells were isolated from the same model as in Experimental Example 7 and stained with MitoSOX, and changes in mitochondrial reactive oxygen species in the RPE cells were examined through fluorescence microscopy. Measurement was performed in the same manner as in Experimental Example 2.

[3] = test system: lesion in the eyeball, Alu-RNA dry-AMD model; experiment: Fundus photography of eyeball lesion in Alu-RNA animal model (dry-AMD); type: in vivo, mouse; conditions: oral, from 6 days before and for 7 days after induction of dry-AMD (1.2 μg Alu-RNA subretinal)
Method: (§3) Male C57BL/6 mice were anesthetized, and a lesion was induced by making a hole in the corneal limbus of the mouse eye and injecting 1.2 μg of Alu-RNA into the subretinal space by a Hamilton syringe. Each of Compound 1-2 and Compound 1-18 was administered orally starting from 6 days before induction of the dry-AMD model, and was administered orally for 7 days after induction of the disease. To evaluate the dry-AMD preventive and therapeutic effects of each of Compound 1-2 and Compound 1-18, the morphology of the lesion was evaluated by fundus photography using TOPCON #TRC-50DX.

RPE cytoskeleton = experiment: RPE cell structure (ZO-1 staining) in Alu-RNA animal model (dry-AMD); type: in vivo, mouse; conditions: oral, from 6 days before and for 7 days after induction of dry-AMD
Method: as §3
RPE cells were isolated from the same model as in Experimental Example 9 and stained for ZO-1, and changes in the structure of the RPE cells were examined under a fluorescence microscope (Olympus SZ51, Tokyo, Japan). Specifically, immediately after enucleation of the mouse eye, the RPE cytoskeleton was stained for zonula occludens-1 (ZO-1) and imaged with a fluorescence microscope through the Z-stack imaging technique, and changes in the RPE cytoskeleton were imaged.

[4] = test system: mitochondrial reactive oxygen species in RPE cells; experiment: Mitochondrial reactive oxygen species (MitoSOX) in RPE cells from Alu-RNA animal model (dry-AMD); type: in vivo, mouse; conditions: oral, from 6 days before and for 7 days after induction of dry-AMD
Description: as §2, §3
RPE cells were isolated from the same model as in Experimental Example 9 and stained with MitoSOX, and changes in mitochondrial reactive oxygen species in the RPE cells were examined through fluorescence microscopy. Measurement was performed in the same manner as in Experimental Example 2.

[5] = test system: inflammation-related mRNA in RPE cells; experiment: Inflammatory factor mRNA (real-time PCR) in RPE cells from Alu-RNA animal model (dry-AMD); type: in vivo, mouse; conditions: oral, from 6 days before and for 7 days after induction of dry-AMD
Method: as §3
RPE cells were isolated from the same model as in Experimental Example 9, and the relative expression level of inflammation-related mRNA was analyzed using real-time PCR. […] 100 pmol of oligo Dt17 primer was added to 1 μg of total RNA which was then incubated at 74° C. for 10 minutes, and then 30 U of RNAsin (RNase inhibitor), 10 U of AMV-RT (avian myeloblastosis virus-reverse transcriptase), and AMV-RT buffer (Promega, Israel) were added thereto and reacted at 42° C. for 2 hours and at 52° C. for 1 hour, thereby synthesizing cDNA from the RNA extracted from the […]. cDNA was amplified using the SYBR Premix Ex Taq kit (Takara Bio, Inc.) and the StepOnePlus Real-time PCR system (Applied Biosystems), and then mRNA expression was measured.

[6] = 25, 50 and 100 mg/kg for 7 days after induction of the disease
[7] = administered for 7 days after induction of the disease, none before induction

| Structure (SMILES) | lesion volume depending on concentration (FIG. 7) [1, 6] | efficacy on lesion compared with positive control anti-VEGF agent (FIG. 3) [1, 7] | lesion formation / lesion volume (FIG. 3) [1, 7] | efficacy on lesion compared with positive control anti-VEGF agent (FIG. 1) [1] | lesion formation / lesion volume (FIG. 1) [1] | efficacy in reducing mitochondrial reactive oxygen species at 100 mg/kg (FIG. 8) ([2]; 100 mg/kg versus 25 and 50 mg/kg, 7 days after induction of the disease) | mitochondrial reactive oxygen species in RPE cells depending on concentration (FIG. 8) [2, 6] | efficacy on mitochondrial reactive oxygen species compared with positive control anti-VEGF agent (FIG. 4) [2, 7] | mitochondrial reactive oxygen species in RPE cells (FIG. 4) [2, 7] | mitochondrial reactive oxygen species in RPE cells (FIG. 2) [2] | efficacy on mitochondrial reactive oxygen species compared with positive control anti-VEGF agent (FIG. 2) [2] | lesion in the eyeball by fundus photography (FIG. 9) [3] | RPE cytoskeleton, ZO-1 staining (FIG. 10) (RPE cytoskeleton) | mitochondrial reactive oxygen species in RPE cells (FIG. 11) [4] | inflammatory factors in RPE cells, relative mRNA expression (FIG. 12) [5] |
| --- | --- | --- | --- | --- | --- | --- | --- | --- | --- | --- | --- | --- | --- | --- | --- |
| CCOc1ccc(C2COc3c(ccc4c3CCC(C)(C)O4)C2)c(O)c1 (stereo not shown) [Compound 1-2] | reduced in a manner dependent on the concentration | efficacy equivalent to that of the positive control anti-VEGF agent | suppressed formation of the lesion | efficacy equivalent to that of the positive control anti-VEGF agent | inhibited lesion formation | highest efficacy | reduced mitochondrial reactive oxygen species in a concentration-dependent manner | efficacy equivalent to that of the positive control anti-VEGF agent | reduced mitochondrial reactive oxygen species | reduced mitochondrial reactive oxygen species | efficacy equivalent to that of the positive control anti-VEGF agent | reduced the lesion in the eyeball | restored the damaged RPE cytoskeleton | reduced mitochondrial reactive oxygen species | effectively reduced |
| CCCOc1ccc([C@@H]2COc3c(ccc4c3CCC(C)(C)O4)C2)c(O)c1 [Compound 1-18] |  |  |  | efficacy equivalent to that of the positive control anti-VEGF agent | inhibited lesion formation |  |  |  |  | reduced mitochondrial reactive oxygen species | efficacy equivalent to that of the positive control anti-VEGF agent | reduced the lesion in the eyeball | restored the damaged RPE cytoskeleton | reduced mitochondrial reactive oxygen species |  |

— patent US20250367163A1, “PHARMACEUTICAL COMPOSITION FOR PREVENTING OR TREATING DEGENERATIVE EYE DISEASES” (GLACEUM, INC., priority 2021, published 2025)
